Experimental data as given in ChEMBL document CHEMBL1201862, “PubChem BioAssay data set” (2004).
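Interpolation was linear, between the two tested concentrations surrounding the appropriate level; five concentrations were tested over 48 hours in 96-well plates. GI50 is the concentration that inhibits growth by half.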 Calls of active or inactive are those of the source. No stated cut-off is given here; in the data, active = GI50 up to about 1.1 µM and inactive = higher.

How the values were obtained:
Test in all cases: NCI tumour cell line growth inhibition, 48 h
SF-268 = test system: SF-268
HCT-15 = test system: HCT-15
SK-OV-3 = test system: SK-OV-3
HL-60 = test system: HL-60
A549 = test system: A549
IGROV-1 = test system: IGROV-1
UACC-62 = test system: UACC-62
EKVX = test system: EKVX
MOLT-4 = test system: MOLT-4
BT-549 = test system: BT-549
ACHN = test system: ACHN
SK-MEL-28 = test system: SK-MEL-28
OVCAR-8 = test system: OVCAR-8
HOP-92 = test system: HOP-92
HT-29 = test system: HT-29
NCI-H460 = test system: NCI-H460
NCI-H23 = test system: NCI-H23
HCT-116 = test system: HCT-116
UO-31 = test system: UO-31
TK-10 = test system: TK-10

Row | Compound | GI50 (SF-268) | GI50 (HCT-15) [µM] | GI50 (SK-OV-3) | GI50 (HL-60) | GI50 (A549) | GI50 (IGROV-1) | GI50 (UACC-62) | GI50 (EKVX) | GI50 (MOLT-4) | GI50 (BT-549) | GI50 (ACHN) | GI50 (SK-MEL-28) | GI50 (OVCAR-8) | GI50 (HOP-92) | GI50 (HT-29) | GI50 (NCI-H460) | GI50 (NCI-H23) | GI50 (HCT-116) | GI50 (UO-31) | GI50 (TK-10)
1 | COc1cc(C(c2cc(OC)c(OC)c(OC)c2)N2C(=O)CCC2C(=O)O)cc(OC)c1OC (centres undefined) | > 100 µM (inactive) | > 100 | > 100 µM (inactive) | > 100 µM (inactive) | > 100 µM (inactive) | > 100 µM (inactive) | > 100 µM (inactive) | > 100 µM (inactive) | > 100 µM (inactive) | > 100 µM (inactive) | > 100 µM (inactive) | > 100 µM (inactive) | > 100 µM (inactive) | > 100 µM (inactive) | > 100 µM (inactive) | > 100 µM (inactive) | > 100 µM (inactive) | > 100 µM (inactive) | > 100 µM (inactive) | –
2 | C=CC(=O)C#Cc1cnc(OC)nc1OC | 30.1 µM (inactive) | 10.7 | > 100 µM (inactive) | 1.09 µM (active) | 59 µM (inactive) | 22.9 µM (inactive) | 16.1 µM (inactive) | 24.4 µM (inactive) | 1.69 µM (inactive) | 12.3 µM (inactive) | 7.43 µM (inactive) | 10.4 µM (inactive) | 26.7 µM (inactive) | 1.39 µM (inactive) | 16.1 µM (inactive) | 24.6 µM (inactive) | 17.5 µM (inactive) | 9.59 µM (inactive) | 16.9 µM (inactive) | 15.6 µM (inactive)
3 | CC1(C)SC2C(NC(=O)Cc3ccccc3)C(=O)N2C1C(=O)O (centres undefined) | > 100 µM (inactive) | > 100 | > 100 µM (inactive) | > 100 µM (inactive) | > 100 µM (inactive) | > 100 µM (inactive) | > 100 µM (inactive) | > 100 µM (inactive) | > 100 µM (inactive) | > 100 µM (inactive) | > 100 µM (inactive) | > 100 µM (inactive) | > 100 µM (inactive) | > 100 µM (inactive) | > 100 µM (inactive) | > 100 µM (inactive) | > 100 µM (inactive) | > 100 µM (inactive) | > 100 µM (inactive) | > 100 µM (inactive)
4 | O=C1CC2[C@@H](N3CCCC3)CCC(N1Cc1ccccc1)C2(O)O (some centres undefined) | > 100 µM (inactive) | > 100 | > 100 µM (inactive) | > 100 µM (inactive) | > 100 µM (inactive) | > 100 µM (inactive) | > 100 µM (inactive) | > 100 µM (inactive) | > 100 µM (inactive) | > 100 µM (inactive) | > 100 µM (inactive) | > 100 µM (inactive) | > 100 µM (inactive) | > 100 µM (inactive) | > 100 µM (inactive) | > 100 µM (inactive) | > 100 µM (inactive) | > 100 µM (inactive) | > 100 µM (inactive) | > 100 µM (inactive)
5 | C[C@@]12C(=O)OC(=O)[C@]1(C)[C@H]1CC[C@@H]2O1 [CANTHARIDIN] | 1.77 µM (inactive) | 4.06 | 2.17 µM (inactive) | 1.63 µM (inactive) | 0.918 µM (active) | 2.16 µM (inactive) | 2.12 µM (inactive) | 0.45 µM (active) | 9.79 µM (inactive) | 1.7 µM (inactive) | 1.18 µM (inactive) | 3.48 µM (inactive) | 5.98 µM (inactive) | 0.61 µM (active) | 1.66 µM (inactive) | 2.72 µM (inactive) | 5.07 µM (inactive) | 1.98 µM (inactive) | 2.64 µM (inactive) | 0.313 µM (active)
6 | CCC12CC(c3ccccc3)C(C(=O)N1)C(=O)N2 (centres undefined) | > 100 µM (inactive) | > 100 | > 100 µM (inactive) | > 100 µM (inactive) | > 100 µM (inactive) | > 100 µM (inactive) | > 100 µM (inactive) | > 100 µM (inactive) | > 100 µM (inactive) | > 100 µM (inactive) | > 100 µM (inactive) | > 100 µM (inactive) | > 100 µM (inactive) | > 100 µM (inactive) | > 100 µM (inactive) | > 100 µM (inactive) | > 100 µM (inactive) | > 100 µM (inactive) | > 100 µM (inactive) | –
7 | COc1ccc(Cc2cc(Cc3ccc(OC)cc3)cc(Cc3ccc(OC)cc3)c2)cc1 | > 100 µM (inactive) | > 100 | > 100 µM (inactive) | > 100 µM (inactive) | > 100 µM (inactive) | > 100 µM (inactive) | > 100 µM (inactive) | > 100 µM (inactive) | > 100 µM (inactive) | > 100 µM (inactive) | > 100 µM (inactive) | > 100 µM (inactive) | > 100 µM (inactive) | > 100 µM (inactive) | > 100 µM (inactive) | > 100 µM (inactive) | – | > 100 µM (inactive) | > 100 µM (inactive) | > 100 µM (inactive)
8 | CC1OC(OC2C[C@](O)(C(=O)CF)Cc3c(O)c4c(c(O)c32)C(=O)c2ccccc2C4=O)CC(N)C1O (some centres undefined) | 0.0255 µM (active) | 0.0588 | 0.0194 µM (active) | < 0.01 µM (active) | < 0.01 µM (active) | 0.0877 µM (active) | < 0.0104 µM (active) | 0.507 µM (active) | < 0.01 µM (active) | 0.131 µM (active) | < 0.01 µM (active) | 0.177 µM (active) | 0.0115 µM (active) | 0.0483 µM (active) | < 0.0156 µM (active) | < 0.01 µM (active) | < 0.01 µM (active) | < 0.01 µM (active) | 0.0392 µM (active) | 0.1 µM (active)
9 | O=C(/C=C(\Nc1ccccc1O)c1ccc(Br)cc1)C(Cl)(Cl)Cl | 11.7 µM (inactive) | 12.2 | 1.07 µM (active) | 2.36 µM (inactive) | 2.75 µM (inactive) | 10.3 µM (inactive) | 13.3 µM (inactive) | 3.21 µM (inactive) | 13.9 µM (inactive) | 15 µM (inactive) | 2.55 µM (inactive) | 11 µM (inactive) | 12.6 µM (inactive) | 2.6 µM (inactive) | 6.43 µM (inactive) | 3.21 µM (inactive) | 12.6 µM (inactive) | 10.5 µM (inactive) | 2.68 µM (inactive) | 6.95 µM (inactive)
10 | CC1=C(C(=O)NCC(C)O)CC(C(=O)NCC(C)O)=C(C)N1 (centres undefined) | > 100 µM (inactive) | > 100 | > 100 µM (inactive) | > 100 µM (inactive) | > 100 µM (inactive) | > 100 µM (inactive) | > 100 µM (inactive) | > 100 µM (inactive) | > 100 µM (inactive) | > 100 µM (inactive) | > 100 µM (inactive) | > 100 µM (inactive) | > 100 µM (inactive) | > 100 µM (inactive) | > 100 µM (inactive) | > 100 µM (inactive) | > 100 µM (inactive) | > 100 µM (inactive) | > 100 µM (inactive) | > 100 µM (inactive)
11 | COc1cccc(-c2cc(O)c3cc(Cl)cnc3n2)c1 | 0.165 µM (active) | 0.114 | 0.152 µM (active) | 0.0211 µM (active) | 0.162 µM (active) | 0.228 µM (active) | 0.0589 µM (active) | > 16.6 µM (inactive) | 0.0991 µM (active) | 2.17 µM (inactive) | 0.127 µM (active) | 0.0918 µM (active) | 0.158 µM (active) | 0.469 µM (active) | 0.0908 µM (active) | 0.0783 µM (active) | 0.254 µM (active) | 0.0469 µM (active) | 0.313 µM (active) | 12.9 µM (inactive)
12 | NC(Cc1c[nH]c(I)n1)C(=O)O (centres undefined) | 84.9 µM (inactive) | 46.2 | > 100 µM (inactive) | 2.27 µM (inactive) | > 100 µM (inactive) | 67 µM (inactive) | > 100 µM (inactive) | 42.7 µM (inactive) | > 100 µM (inactive) | 43.4 µM (inactive) | > 100 µM (inactive) | 74.1 µM (inactive) | 81.5 µM (inactive) | 25.6 µM (inactive) | > 100 µM (inactive) | > 100 µM (inactive) | 81.3 µM (inactive) | 81.5 µM (inactive) | > 100 µM (inactive) | > 100 µM (inactive)
13 | COC(=O)C1OC(SCCN)C(O)C(O)C1O (centres undefined) | > 100 µM (inactive) | > 100 | > 100 µM (inactive) | > 100 µM (inactive) | > 100 µM (inactive) | > 100 µM (inactive) | > 100 µM (inactive) | > 100 µM (inactive) | > 100 µM (inactive) | > 100 µM (inactive) | > 100 µM (inactive) | > 100 µM (inactive) | > 100 µM (inactive) | > 100 µM (inactive) | > 100 µM (inactive) | > 100 µM (inactive) | > 100 µM (inactive) | > 100 µM (inactive) | – | > 100 µM (inactive)
14 | COc1cccc(C2ON=C(c3ccccc3)N2C23CC4CC(CC(C4)C2)C3)c1 (centres undefined) | > 10 µM (inactive) | > 10 | > 10 µM (inactive) | 5.09 µM (inactive) | > 10 µM (inactive) | > 10 µM (inactive) | > 10 µM (inactive) | > 10 µM (inactive) | 5.5 µM (inactive) | > 10 µM (inactive) | > 10 µM (inactive) | > 10 µM (inactive) | > 10 µM (inactive) | > 10 µM (inactive) | > 10 µM (inactive) | > 10 µM (inactive) | > 10 µM (inactive) | > 10 µM (inactive) | – | > 10 µM (inactive)
15 | Cc1cccc(C(C)(C)C)c1NC(=O)C(C#N)C1=C(Cl)C(=O)c2ccccc2C1=O (centres undefined) | 17.1 µM (inactive) | – | 15.8 µM (inactive) | 2.03 µM (inactive) | 21.7 µM (inactive) | 18.4 µM (inactive) | 18.2 µM (inactive) | 12.5 µM (inactive) | 2.74 µM (inactive) | 14.3 µM (inactive) | 14.5 µM (inactive) | 16.9 µM (inactive) | 18.2 µM (inactive) | 3.93 µM (inactive) | 20.8 µM (inactive) | 19.2 µM (inactive) | 15.8 µM (inactive) | 14.1 µM (inactive) | 14.7 µM (inactive) | 19.1 µM (inactive)
